Measured values as given in patent US12233161B1, “Lipids and lipid nanoparticle formulations” (LONGUIDE BIOPHARMA CORPORATION, priority 2024, dated 2025).

Test system: mice
Test: In vivo delivery of FLuc-mRNA lipid nanoparticles in mice, in vivo imaging (IVIS)
Conditions: Fluc-mRNA LNP
Protocol: After the preparation was completed, the preparation was injected intramuscularly (mice rectus femoris muscle of the thigh), intravenously (mice tail vein), or intraperitoneal injection or subcutaneous injection (subcutaneous on the back), with approximately 75 μL per mouse, for a total of 3 mice. After a certain time of injection, in vivo imaging (PerkinElmer, IVIS Lumina III) was performed. 10-15 minutes before imaging, 200 μL of 15 mg/mL D-Luciferin working solution was injected intraperitoneally, and the imaging analysis was performed using an in vivo imager.

[1] = route IM, organ not given, formulation, molar ratio and N/P as in the table
[2] = route IV, organ not given, formulation, molar ratio and N/P as in the table
[3] = route IV, organ: body, formulation, molar ratio and N/P as in the table
[4] = route IV, organ: liver, formulation, molar ratio and N/P as in the table
[5] = route IV, organ: lung, formulation, molar ratio and N/P as in the table
[6] = route IV, organ: spleen, formulation, molar ratio and N/P as in the table
[7] = route IM, 1 h (live), DSPE-PEG5000:DSPC:Chol:compound 1.40:11.15:38.95:48.50, N/P 30
[8] = route IM, 1 h (lung), DSPE-PEG5000:DSPC:Chol:compound 1.40:11.15:38.95:48.50, N/P 30
[9] = route IM, 1 h (spleen), DSPE-PEG5000:DSPC:Chol:compound 1.40:11.15:38.95:48.50, N/P 30
[10] = route IM, 2 h (live), DSPE-PEG5000:DSPC:Chol:compound 1.40:11.15:38.95:48.50, N/P 30
[11] = route IM, 2 h (lung), DSPE-PEG5000:DSPC:Chol:compound 1.40:11.15:38.95:48.50, N/P 30
[12] = route IM, 2 h (spleen), DSPE-PEG5000:DSPC:Chol:compound 1.40:11.15:38.95:48.50, N/P 30
[13] = route IM, 3 h (live), DSPE-PEG5000:DSPC:Chol:compound 1.40:11.15:38.95:48.50, N/P 30
[14] = route IM, 3 h (lung), DSPE-PEG5000:DSPC:Chol:compound 1.40:11.15:38.95:48.50, N/P 30
[15] = route IM, 3 h (spleen), DSPE-PEG5000:DSPC:Chol:compound 1.40:11.15:38.95:48.50, N/P 30
[16] = route IM, 6 h (live), DSPE-PEG5000:DSPC:Chol:compound 1.40:11.15:38.95:48.50, N/P 30
[17] = route IM, 6 h (lung), DSPE-PEG5000:DSPC:Chol:compound 1.40:11.15:38.95:48.50, N/P 30
[18] = route IM, 6 h (spleen), DSPE-PEG5000:DSPC:Chol:compound 1.40:11.15:38.95:48.50, N/P 30

SMILES: CCCCCCCCCCN(C)C(=O)C(O)CN(CCN(C)CCN(CC(O)C(=O)N(C)CCCCCCCCCC)CC(O)C(=O)N(C)CCCCCCCCCC)CC(O)C(=O)N(C)CCCCCCCCCC (stereo not shown) [Compound L0349]
- IVIS [1]: 8.25E+04
- IVIS [2]: 5.98E+05

SMILES: CCCCCCCCN(C)C(=O)C(O)CN(CCCN(C)CCCN(CC(O)C(=O)N(C)CCCCCCCC)CC(O)C(=O)N(C)CCCCCCCC)CC(O)C(=O)N(C)CCCCCCCC (stereo not shown) [Compound L0350]
- IVIS [1]: 1.75E+05
- IVIS [3]: 8.43E+06
- % of organ targeting [4]: 0.95%
- IVIS [4]: 2.94E+05
- % of organ targeting [5]: 96.29%
- IVIS [5]: 2.99E+07
- % of organ targeting [6]: 2.76%
- IVIS [6]: 8.57E+05

SMILES: CCCCCCCCN(C)C(=O)C(O)CN(C)CCN(C)CCN(C)CC(O)C(=O)N(C)CCCCCCCC (stereo not shown) [Compound L0351]
- IVIS [1]: 1.19E+06
- IVIS [2]: 1.55E+06

SMILES: CCCCCCCCN(C)C(=O)C(O)CN(CCN(C)CCN(CC(O)C(=O)N(C)CCCCCCCC)CC(O)C(=O)N(C)CCCCCCCC)CC(O)C(=O)N(C)CCCCCCCC (stereo not shown) [Compound L0352]
- IVIS [1]: 4.47E+05
- IVIS [3]: 1.95E+06
- % of organ targeting [4]: 15.27%
- IVIS [4]: 4.07E+05
- % of organ targeting [5]: 8.93%
- IVIS [5]: 2.38E+05
- % of organ targeting [6]: 75.80%
- IVIS [6]: 2.02E+06

SMILES: CCCCCCCCCCN(C)C(=O)C(O)CN(CCCN(CC(O)C(=O)N(C)CCCCCCCCCC)CC(O)C(=O)N(C)CCCCCCCCCC)CCCN(CC(O)C(=O)N(C)CCCCCCCCCC)CC(O)C(=O)N(C)CCCCCCCCCC (stereo not shown) [Compound L0353]
- IVIS [1]: 1.68E+07
- IVIS [3]: 1.21E+08
- % of organ targeting [4]: 31.60%
- IVIS [4]: 3.54E+07
- % of organ targeting [5]: 2.97%
- IVIS [5]: 3.33E+06
- % of organ targeting [6]: 65.43%
- IVIS [6]: 7.33E+07

SMILES: CCCCCCCCN(C)C(=O)C(O)CN(CCCN(CC(O)C(=O)N(C)CCCCCCCC)CC(O)C(=O)N(C)CCCCCCCC)CCCN(CC(O)C(=O)N(C)CCCCCCCC)CC(O)C(=O)N(C)CCCCCCCC (stereo not shown) [Compound L0354]
- IVIS [1]: 6.90E+06
- IVIS [3]: 1.35E+08
- % of organ targeting [4]: 44.24%
- IVIS [4]: 3.14E+07
- % of organ targeting [5]: 1.31%
- IVIS [5]: 9.31E+05
- % of organ targeting [6]: 54.45%
- IVIS [6]: 3.86E+07

SMILES: CCCCCCCCCCCCCCN(C)C(=O)C(O)CN(CCCN(C)CCCN(CC(O)C(=O)N(C)CCCCCCCCCCCCCC)CC(O)C(=O)N(C)CCCCCCCCCCCCCC)CC(O)C(=O)N(C)CCCCCCCCCCCCCC (stereo not shown) [Compound L0355]
- IVIS [1]: 2.41E+06
- IVIS [3]: 9.52E+06
- % of organ targeting [4]: 1.66%
- IVIS [4]: 2.63E+05
- % of organ targeting [5]: 84.86%
- IVIS [5]: 1.34E+07
- % of organ targeting [6]: 13.48%
- IVIS [6]: 2.13E+06

SMILES: CCCCCCCCCCCCCCN(C)C(=O)C(O)CN(CCN(C)CCN(CC(O)C(=O)N(C)CCCCCCCCCCCCCC)CC(O)C(=O)N(C)CCCCCCCCCCCCCC)CC(O)C(=O)N(C)CCCCCCCCCCCCCC (stereo not shown) [Compound L0356]
- IVIS [1]: 1.62E+05
- IVIS [3]: 2.19E+06
- % of organ targeting [4]: 7.17%
- IVIS [4]: 1.12E+05
- % of organ targeting [5]: 75.97%
- IVIS [5]: 1.18E+06
- % of organ targeting [6]: 16.86%
- IVIS [6]: 2.63E+05

SMILES: CCCCCCCCCCCCCCN(C)C(=O)C(O)CN(CCCN(CC(O)C(=O)N(C)CCCCCCCCCCCCCC)CC(O)C(=O)N(C)CCCCCCCCCCCCCC)CCCN(CC(O)C(=O)N(C)CCCCCCCCCCCCCC)CC(O)C(=O)N(C)CCCCCCCCCCCCCC (stereo not shown) [Compound L0357]
- IVIS [1]: 3.97E+06
- IVIS [3]: 2.87E+07
- % of organ targeting [4]: 55.56%
- IVIS [4]: 6.55E+06
- % of organ targeting [5]: 1.75%
- IVIS [5]: 2.06E+05
- % of organ targeting [6]: 42.69%
- IVIS [6]: 5.03E+06

SMILES: CCCCCCC(CCCCCC)C(=O)OCCCCCCNC(=O)C(O)CN(CCCN(C)CCCN(CC(O)C(=O)NCCCCCCOC(=O)C(CCCCCC)CCCCCC)CC(O)C(=O)NCCCCCCOC(=O)C(CCCCCC)CCCCCC)CC(O)C(=O)NCCCCCCOC(=O)C(CCCCCC)CCCCCC (stereo not shown) [Compound L0358]
- IVIS [1]: 1.45E+07

SMILES: CCCCCCC(CCCCCC)C(=O)OCCCCCCNC(=O)C(O)CN(CCN(C)CCN(CC(O)C(=O)NCCCCCCOC(=O)C(CCCCCC)CCCCCC)CC(O)C(=O)NCCCCCCOC(=O)C(CCCCCC)CCCCCC)CC(O)C(=O)NCCCCCCOC(=O)C(CCCCCC)CCCCCC (stereo not shown) [Compound L0359]
- IVIS [1]: 2.25E+07
- IVIS [3]: 2.65E+08
- % of organ targeting [4]: 33.50%
- IVIS [4]: 5.06E+07
- % of organ targeting [5]: 6.37%
- IVIS [5]: 9.61E+06
- % of organ targeting [6]: 60.13%
- IVIS [6]: 9.08E+07

SMILES: CCCCCCC(CCCCCC)C(=O)OCCCCCCNC(=O)C(O)CN(CCCN(CC(O)C(=O)NCCCCCCOC(=O)C(CCCCCC)CCCCCC)CC(O)C(=O)NCCCCCCOC(=O)C(CCCCCC)CCCCCC)CCCN(CC(O)C(=O)NCCCCCCOC(=O)C(CCCCCC)CCCCCC)CC(O)C(=O)NCCCCCCOC(=O)C(CCCCCC)CCCCCC (stereo not shown) [Compound L0360]
- IVIS [1]: 1.44E+07
- IVIS [2]: 4.50E+08

SMILES: CCCCCCC(CCCCCC)C(=O)NCCOC(=O)C(O)CN(CCCN(C)CCCN(CC(O)C(=O)OCCNC(=O)C(CCCCCC)CCCCCC)CC(O)C(=O)OCCNC(=O)C(CCCCCC)CCCCCC)CC(O)C(=O)OCCNC(=O)C(CCCCCC)CCCCCC (stereo not shown) [Compound L0361]
- IVIS (route IH, organ: body, DSPE-PEG5000:DSPC:Chol:compound 1.40:11.15:38.95:48.50, N/P 30): 1.54E+08
- IVIS (route IH, organ: spleen, DSPE-PEG5000:DSPC:Chol:compound 1.40:11.15:38.95:48.50, N/P 30): 3.59E+04
- % of organ targeting [7]: 63.15%
- IVIS [7]: 6.62E+05
- % of organ targeting [8]: 4.17%
- IVIS [8]: 4.37E+04
- IVIS (route IM, 1 h (muscle), DSPE-PEG5000:DSPC:Chol:compound 1.40:11.15:38.95:48.50, N/P 30): 1.07E+08
- % of organ targeting [9]: 31.03%
- IVIS [9]: 3.25E+05
- % of organ targeting [10]: 58.75%
- IVIS [10]: 7.54E+06
- % of organ targeting [11]: 1.27%
- IVIS [11]: 1.63E+05
- IVIS (route IM, 2 h (muscle), DSPE-PEG5000:DSPC:Chol:compound 1.40:11.15:38.95:48.50, N/P 30): 1.87E+08
- % of organ targeting [12]: 37.18%
- IVIS [12]: 4.77E+06
- % of organ targeting [13]: 42.49%
- IVIS [13]: 4.54E+06
- % of organ targeting [14]: 4.98%
- IVIS [14]: 5.32E+05
- IVIS (route IM, 3 h (muscle), DSPE-PEG5000:DSPC:Chol:compound 1.40:11.15:38.95:48.50, N/P 30): 2.97E+08
- % of organ targeting [15]: 50.95%
- IVIS [15]: 5.45E+06
- % of organ targeting [16]: 52.52%
- IVIS [16]: 1.17E+07
- % of organ targeting [17]: 2.72%
- IVIS [17]: 6.06E+05
- IVIS (route IM, 6 h (muscle), DSPE-PEG5000:DSPC:Chol:compound 1.40:11.15:38.95:48.50, N/P 30): 2.62E+08
- % of organ targeting [18]: 42.27%
- IVIS [18]: 9.42E+06
- IVIS [1]: 1.14E+08
- IVIS [3]: 4.99E+07
- IVIS [4]: 1.24E+07
- IVIS [5]: 1.36E+07
- IVIS [6]: 5.05E+07
